Source: the NIST ThermoML archive (doi:10.1021/je501026m)
Numbers after ± are expanded uncertainties.

Details: Crystal; DTA

Question: Which Normal melting temperature does the source give for `C[n+]1ccn(CCOCCn2cc[n+](C)c2)c1.F[P-](F)(F)(F)(F)F.F[P-](F)(F)(F)(F)F` here?
Answer: 98.00 ± 1 °C
